Reference: patent US8592374B2, “Neurotrophic peptides” (Research Foundation for Mental Hygiene, Inc., priority 2007, dated 2013)
“Also recorded” adds a separate entry of the source. Peptide text beside a SMILES is read from it. * marks the point of attachment. Adamantane1carbonyl = O=C(C12CC3CC(CC(C3)C1)C2)*; X1 = NC(=O)C12CC3CC(CC(N*)(C3)C1)C2

How the values were obtained:
[1] = General examination (physical state, body weight, exploratory activity, swim speed, floating); format: in vivo, mice; details: 25 nmol/day for 35 days
Procedure: All in vivo studies for characterization of compounds (stereology and behavioral analysis) were performed on 8-10-month-old female retired breeders of C57Bl6 background. Animals were acclimatized for at least 3 weeks to exclude occasional pregnant mice from the studies. Mice were group-housed (3 animals per cage) with a 12:12 hours light/dark cycle and with free access to food and water.
(§1) For the compound treatment, mice (8 animals/group) received subcutaneous implants of extended release depot pellets containing P21 or P22 at 25 nmol/day for 35 days of continuous dosing (Innovative Research of America, USA). For the control group (8 animals), pellets consisted of the carrier polymer only. Mice were anesthetized with 2.5% Avertin (0.38 ml for a 25 g animal). Under sterile conditions, pellets were implanted subcutaneously along the anterolateral aspect of the right shoulder with a precision trochar (Innovative Research of America). After recovery of anesthesia, animals were transferred to the animal colony. No complications associated with the implantation and treatment were observed. All procedures on animals were conducted in accordance with approved protocols from our Institutional Animal Welfare Committee.
The physical state and condition of animals were carefully monitored throughout the treatment by evaluating grooming, physical state and clasping reflex. Body weight was also recorded.
The test used was an adaptation of the procedure previously described by Sargolini and collaborators (Sargolini, F., et al. Behav Brain Res 138 (2003):153-63). The testing apparatus was a classic open field (i.e. a PVC square arena, 50×50 cm, with walls 40 cm high). The open field was placed in a part of the room separated from the experimentator with a black opaque curtain. The open field was surmounted by a video camera connected to a computer. Three objects were employed in this task. The general procedure consisted of three different phases: a familiarization phase (1 session of 20 min), a sample phase, and a test phase. On the first days, mice were individually submitted to the familiarization session during which they were introduced in the empty arena in order to become familiar with the apparatus. This familiarization session allowed to record a baseline level of locomotor activity (measuring the distance covered in the open field) and of anxiety (measuring the time the animals spent in the centre of the arena during the first five minutes). On the second day each mouse was first submitted to the sample phase (session 1, ten minutes) for which two identical objects were placed in a symmetric position from the centre of the arena. After a 15 minute delay during which the mouse returned to its home cage, it was reintroduced in the arena to perform the test phase (session 2, 10 min). The mouse was then exposed to two objects: a familiar object (previously presented during the sample phase) and a new object, placed at the same location as during the sample phase. Data collection was performed using a video tracking system (Smart version 2.0.14 software, Pan Lab/San Diego Instruments). Object discrimination was calculated as follows: OD=(time spent close to new object)/(time spent close to new object)+(time spent close to old object)×100

[2] = system: normal adult mice; assay: Open field, time in the centre of the arena (anxiety); format: in vivo; details: 25 nmol/day, first five minutes of familiarization session
Procedure: as §1
(§2) The test used was an adaptation of the procedure previously described by Sargolini and collaborators (Sargolini, F., et al. Behav Brain Res 138 (2003):153-63). The testing apparatus was a classic open field (i.e. a PVC square arena, 50×50 cm, with walls 40 cm high). The open field was placed in a part of the room separated from the experimentator with a black opaque curtain. […] Object discrimination was calculated as follows: OD=(time spent close to new object)/(time spent close to new object)+(time spent close to old object)×100

[3] = system: normal adult mice; assay: One-trial object recognition test; format: in vivo; details: 25 nmol/day, test phase after 15 minute delay
Procedure: as §1
In the one-trial object recognition task, animals are exposed to two different objects which they have to identify as novel or familiar based on the memory of an earlier experience with one of the two objects they encountered in the same open field. The familiar object is explored shorter than the novel encountered one because the representation of the former is still available in memory. The one-trial object recognition task tests some aspects of episodic memory but is limited to memory of an object (what), the location of an object (where), and the context in which it was encountered (which). However, the temporal dimension of the episode remains inaccessible to the experimentator, and because of this reason this task in animals is considered a test of short term memory.
as §2, with “high).” for “high). The open field was placed in a part of the room separated from the experimentator with a black opaque curtain.”

[4] = system: normal adult mice; assay: Spatial reference memory task in the water maze; format: in vivo
Procedure: as §1
Spatial reference learning and memory were evaluated in the water maze using a procedure adapted from that previously described by Morris et al. (Morris, R. G., et al. Nature 297 (1982): 681-3). The test required that mice used a spatial navigational strategy based on a spatial representation of the environment to find a fixed submerged escape platform. The procedure was performed in a 180 cm diameter circular tank. The pool was filled with water (21±1° C.) made opaque by adding white non-toxic paint. Acquisition started with the escape platform (15 cm diameter submerged 1 cm below water surface) in the Northwest quadrant and each animal was given 90 s to find the platform. […] At the end of each trial, the mouse was left on the platform for 20 seconds, then dried and returned to its home cage until the next trial. Five such acquisition trials were given on each day for four consecutive days. A test for retention, or probe trial (PT), was given 24 hours later. During the probe trial the mouse was allowed to swim in the tank without the escape platform for 60 seconds. This was followed by second and third probe trials 15 and 30 days after the first probe trial.
The measures of learning were the time and distance covered to reach the escape platform. For the probe trial, the tank was divided into four imaginary quadrants and a small zone where the escape platform had been. The measure of retention was calculated as the ratio of time spent or distance covered in target quadrant over that in the three other quadrants.
Mouse behavior in the water maze was monitored by a Samsung Digital Camera (SDC 4304) mounted to the ceiling and tracked and timed by a SMART (Pan Lab/San Diego Instruments) version 2.0.14 software.

[5] = system: adult hippocampal progenitors in the dentate gyrus; assay: Neurogenesis in the DG (BrdU-positive and BrdU/NeuN-double-positive cells); format: in vivo, mice; details: 25 nmol/day for 35 days
Procedure: as §1
To investigate neurogenesis, BrdU (Sigma, USA) was given as two daily i.p. injections (100 mg/kg/dose) for five days starting on day 2 of compounds treatment.
At the end of the behavioral experiment, animals were anesthetized with an overdose of sodium pentobarbital (120 mg/kg) and transcardially perfused with 0.1 M phosphate buffered saline (PBS). After perfusion, the brains were removed from the skull, the left hemisphere was immediately frozen for future biochemical analysis and the right hemisphere was immersion fixed in 4% paraformaldehyde in 0.1 M PBS for at least 24 hours at room temperature. Tissues were equilibrated and stored in 30% sucrose solution at 4° C. until sectioning. The brains were sectioned sagittaly on a freezing sliding microtome at 40 μm through the entire hippocampus and the sections were stored in glycol anti-freeze solution (Ethylene glycol, glycerol and 0.1 M PBS in 3:3:4 ratio) at −20° C. until further processing.
For double labeling of BrdU and NeuN, brain sections were pretreated with 2 M HCl at 37° C. for 30 min and neutralized with 0.1 M borate buffer (pH 8.5) for 10 minutes. […]
Neurogenesis in the dentate gyrus was evaluated by counting the number of BrdU-positive and BrdU/NeuN-double-positive cells in the dentate gyrus (DG). The number of positive cells was determined in every fifth section in a series of 40 μm sagittal sections throughout the DG using unbiased sterology. All BrdU-positive cells in the subgranular zone (SGZ) and granule cell layer (GCL) were counted using a fluorescent microscope (Nikon Eclipse 90i, Nikon Corporation, Japan). Double labeled cells were assessed by a confocal imaging system (D-Eclipse C1, Nikon Corporation). […] For each brain, at least 100 cells were counted based on coefficient of error determinations.

[6] = General examination (physical state, body weight, exploratory activity, swim speed, floating); format: in vivo, mice; details: 25 nmol/day for 35 days; remark: listed apart in the source
[7] = system: AHPs; assay: Cell-based assay for differentiation of AHPs with CNTF (βIII-tubulin/DAPI); details: 1 hr fixation
Procedure: βIII-tubulin antigenicity is compromised by fixation, although longer fixation improves attachment to the plates. Therefore, plates with different coatings for their suitability to be used in differentiation assay using CNTF (0.1, 1, 10, 100 ng/ml) were tested. Coating matrices tested: • poly D-lysine • poly D-lysine/laminin • poly L-ornithine/laminin • polyethyleneimine • collagen I • fibronectin The best immunostaining for βIII-tubulin was with 10 min fixation. However, since less cells were lost with 1 hr fixation, the differentiation assay with CNTF was performed with 1 hr fixation. The best differentiation was achieved on polyethyleneimine coated plates using the ratio of βIII-tubulin immunostaining to DAPI nuclear staining (cell number) as % of control as a relative measure of differentiation.

[8] = cited from earlier work
[9] = system: embryonic chick ciliary neurons; details: embryonic chick ciliary neurons in culture; cited from earlier work
[10] = target: T1, human CNTF receptor (Homo sapiens, UniProt P26992); details: cited from earlier work
T1 sequence (P26992 23-342): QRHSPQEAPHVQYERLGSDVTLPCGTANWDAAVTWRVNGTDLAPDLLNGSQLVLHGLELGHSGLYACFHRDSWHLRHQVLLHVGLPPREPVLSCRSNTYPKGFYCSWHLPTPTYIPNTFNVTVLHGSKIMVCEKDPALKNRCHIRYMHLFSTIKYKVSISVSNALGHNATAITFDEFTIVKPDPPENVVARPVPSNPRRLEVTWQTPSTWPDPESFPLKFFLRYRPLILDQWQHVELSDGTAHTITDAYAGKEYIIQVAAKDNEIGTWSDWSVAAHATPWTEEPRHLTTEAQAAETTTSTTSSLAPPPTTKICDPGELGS

CC(C)C[C@H](NC(=O)CNC(=O)CNC(=O)[C@H](CC(=O)O)NC(=O)C12CC3CC(CC(C3)C1)C2)C(=O)NC12CC3CC(C1)CC(C(N)=O)(C3)C2 [Peptide P22, 1-AdCO-DGGL^AG-NH2] (Adamantane1carbonyl-DGGL-X1)
exploratory behavior / exploratory activity ([1]; open field): no alteration; also recorded: did not induce any effect
body weight ([1]; subcutaneous pellets): no alteration; also recorded: did not induce any effect
general physical state ([1]; subcutaneous pellets): no alteration
level of anxiety (time in the center of the open field) [2]: spent more time in the center of the open field than control animals; also recorded: reduced anxiety level
time exploring the new object versus the familiar object [3]: did not preferentially explore the novel object
effect in the probe trials ([4]; three probe trials): No statistically significant effect
escape latencies to reach the submerged platform (learning) ([4]; training day 2 to 4, compared to control group): significantly reduced; also recorded: increased performance in the learning of spatial memory task
BrdU positive cells in the DG (GCL and SGZ) [5]: No significant alteration in neurogenesis
BrdU/NeuN positive cells in the DG (GCL) [5]: No significant changes
floating behavior in the water maze task (sign of depression or locomotor impairment) [6]: no floating behavior was observed
swim speed ([6]; water maze): no alteration; also recorded: did not induce any effect

B1: CNTF: Ciliary neurotrophic factor, a survival factor for various neuronal cell types; 200 amino acid protein (protein, UniProt P26441 1-200, looked up)
chain: MAFTEHSPLTPHRRDLCSRSIWLARKIRSDLTALTESYVKHQGLNKNINLDSADGMPVASTDQWSELTEAERLQENLQAYRTFHVLLARLLEDQQVHFTPTEGDFHQAIHTLLLQVAAFAYQIEELMILLEYKIPRNEADGMPINVGDGGLFEKKLWGLKVLQELSQWTVRSIHDLRFISSHQTGIPARGSHYIANNKKM
modifications: full-length
notes: Ciliary neurotrophic factor, a survival factor for various neuronal cell types; 200 amino acid protein
βIII-tu/DAPI (% of Control) (100 ng/ml CNTF) ([7]; coating poly D-lysine): 175 % of Control
βIII-tu/DAPI (% of Control) (100 ng/ml CNTF) ([7]; coating poly D-lysine/laminin): 240 % of Control
βIII-tu/DAPI (% of Control) (100 ng/ml CNTF) ([7]; coating poly L-ornithine/laminin): 330 % of Control
βIII-tu/DAPI (% of Control) (100 ng/ml CNTF) ([7]; coating poly ethyleneimine): 480 % of Control
side effects of administration in human clinical trials [8]: anorexia, skeletal muscle loss, hyperalgesia, cramps, and muscle pain

B2: recombinant rat CNTF: recombinant rat ciliary neurotrophic factor (protein, UniProt P20294 1-200, looked up)
Ciliary neurotrophic factor: MAFAEQTPLTLHRRDLCSRSIWLARKIRSDLTALMESYVKHQGLNKNINLDSVDGVPVASTDRWSEMTEAERLQENLQAYRTFQGMLTKLLEDQRVHFTPTEGDFHQAIHTLMLQVSAFAYQLEELMVLLEQKIPENEADGMPATVGDGGLFEKKLWGLKVLQELSQWTVRSIHDLRVISSHQMGISALESHYGAKDKQM
biological activity in supporting survival and neurite outgrowth, relative to recombinant human CNTF [9]: four times better
affinity for the human CNTF receptor relative to human CNTF [10]: higher affinity
